{"source": "patent US20110135574A1", "about": "“METHODS OF TREATING KIDNEY DISEASE” (priority 2009, published 2011)", "key": {"[1]": {"test_system": "AT1R podocytes", "experiment": "Whole-cell patch-clamp recording of AngII-evoked TRPC-like current", "type": "cell-based, rat", "conditions": "AngII 500 nM", "method": "(§1) Electrophysiology. Patch-clamp electrophysiology (Axopatch 200B amplifier, Axon Instruments, CA) was performed in the whole-cell configuration. Briefly, fully differentiated podocytes were plated on glass coverslips at low density and placed in the recording chamber. The patch pipettes with resistances of 3-4 MΩ were pulled from borosilicate glass with a P-97 puller (Sutter Instrument) and filled with a solution containing (in mM): 135 CH3SO3Cs, 10 CsCl, 3 MgATP, 0.2 NaGTP, 0.2 EGTA, 0.13 CaCl2, and 10 HEPES, pH 7.3 with CsOH. The bath solution contained (in mM): 135 CH3SO3Na, 5 CsCl, 2 CaCl2, 1 MgCl2, 10 HEPES, and 10 Glucose, pH 7.4 with NaOH. Angiotensin (500 nM) was applied to the bath solution. Whole-cell currents were recorded from −100 mV to 100 mV voltage ramps over 150 ms and a holding potential of zero. For single channel recordings in the outside-out configuration, we utilized a voltage step protocol from −100 mV to +100 mV delivered at 20 mV intervals and a holding potential of −60 mV. Average pipette resistance filled with pipette solution was 5-10 MΩ. Data were sampled at 10 kHz and filtered at 5 kHz. […] Ensemble averages were expressed as open channel probabilities (average current divided by unitary current amplitude and # of channels in each patch) and plotted as histograms. All data were acquired at room temperature and analyzed using pClamp 10 (Axon Instruments, CA)."}, "[2]": {"test_system": "podocytes", "experiment": "Stress fiber quantification in podocytes, TRPC/Rho GTPase coupling (FIG. 4E)", "type": "cell-based", "method": "Lentivirus construction and shRNA-mediated gene silencing. Podocytes were exposed to lentivirus encoding validated shRNA sequences (Open Biosystems) for 24 hours in cell culture medium supplemented with 4 μg/ml polybrene (Chemicon International). For all experiments, parallel infections with the enhanced GFP virus in the VVPW vector, scrambled shRNA, or polybrene alone were used as control. All experiments were performed at least 48 hours post-infection of podocytes that were thermoshifted 5-7 days prior to the assay. Lentiviral particles pseudotyped with the vesicular stomatitis virus glycoprotein (VSV-G) were constructed according to the manufacturer's protocol. Briefly, low-passage HEK293T cells were transfected with the pLKO.1 plasmid encoding the shRNA, the packaging plasmid pMDG.2 ΔR8.91, and the envelope plasmid pCMV-VSV-G at a ratio of 10:10:1 using the Minis Trans-IT LT-1 transfection reagent. Enhanced GFP encoded in the pLVX vector was used to assess transfection efficiency. The medium was replaced with the virus harvest media 18 hours post-transfection, and viral particles were collected twice at 24 hour intervals thereafter. […]\n(§2) Immunocytochemistry, wound healing assays, and confocal imaging. […] For double immunostaining, podocytes were incubated with antibodies to Paxillin (Chemicon International) and detected with Alexa-488-conjugated secondary antibodies (Molecular Probes). […]"}, "[3]": {"test_system": "AT1R podocytes", "experiment": "Stress fiber (phalloidin) and focal adhesion (paxillin) quantification after AngII, AT1R podocytes", "type": "cell-based, rat", "conditions": "in words", "method": "(§3) Podocyte cell culture. Wild-type mouse podocytes (passages 7 to 18) derived from the Immortomouse stably expressing the temperature-sensitive SV40 T-antigen were generously provided by Peter Mundel (University of Miami School of Medicine, FL) and cultured as previously described (Asanuma et al., Nat Cell Biol 8, 485-491, 2006). Briefly, podocytes were plated on collagen-coated cell culture dishes (100 μg/ml Type I Collagen, Gibco Invitrogen) and maintained at 33° C. in a humidified atmosphere of 5% CO2 in RPMI1640 medium supplemented with 10% heat-inactivated FBS, 100 U/ml Penicillin, 100 μg/ml streptomycin, and 100 U/ml Interferon-γ (IFN-γ). Under these permissive culture conditions, the podocytes remain in the undifferentiated, replication-competent state. Podocytes were thermoshifted to 38° C. and maintained in IFN-γ-free culture medium to induce growth arrest and differentiation. Podocyte-specific markers for differentiation are expressed within 7 days of culture in these non-permissive conditions. […]\nas §2"}, "[4]": {"test_system": "AT1R podocytes", "experiment": "Fluo-3 calcium imaging of AngII-evoked Ca2+ transients", "type": "cell-based, rat", "conditions": "Losartan 200 nM; AngII 500 nM", "method": "as §3\nCalcium imaging. […] Fluorescence intensity was normalized to maximal fluorescence obtained at the end of each experiment by the application of 100 μM Ionomycin, based on the formula F=(Fmax (angiotensin)−Fmin)/(Fmax (ionomycin)−Fmin). Measurements were analyzed using Zeiss Pascal Software and Microsoft Xcel, and images were prepared in Adobe Photoshop and NIH Image J."}, "[5]": {"target": "T1, TRPC5 and TRPC6 channels in AT1R podocytes (Rattus norvegicus, UniProt Q99N78)", "T1 construct": "endogenous in cells; host or cells: immortalized rat podocytes stably expressing the AngII Type 1 Receptor (AT1R podocytes)", "T1 sequence (Q99N78 1-930)": "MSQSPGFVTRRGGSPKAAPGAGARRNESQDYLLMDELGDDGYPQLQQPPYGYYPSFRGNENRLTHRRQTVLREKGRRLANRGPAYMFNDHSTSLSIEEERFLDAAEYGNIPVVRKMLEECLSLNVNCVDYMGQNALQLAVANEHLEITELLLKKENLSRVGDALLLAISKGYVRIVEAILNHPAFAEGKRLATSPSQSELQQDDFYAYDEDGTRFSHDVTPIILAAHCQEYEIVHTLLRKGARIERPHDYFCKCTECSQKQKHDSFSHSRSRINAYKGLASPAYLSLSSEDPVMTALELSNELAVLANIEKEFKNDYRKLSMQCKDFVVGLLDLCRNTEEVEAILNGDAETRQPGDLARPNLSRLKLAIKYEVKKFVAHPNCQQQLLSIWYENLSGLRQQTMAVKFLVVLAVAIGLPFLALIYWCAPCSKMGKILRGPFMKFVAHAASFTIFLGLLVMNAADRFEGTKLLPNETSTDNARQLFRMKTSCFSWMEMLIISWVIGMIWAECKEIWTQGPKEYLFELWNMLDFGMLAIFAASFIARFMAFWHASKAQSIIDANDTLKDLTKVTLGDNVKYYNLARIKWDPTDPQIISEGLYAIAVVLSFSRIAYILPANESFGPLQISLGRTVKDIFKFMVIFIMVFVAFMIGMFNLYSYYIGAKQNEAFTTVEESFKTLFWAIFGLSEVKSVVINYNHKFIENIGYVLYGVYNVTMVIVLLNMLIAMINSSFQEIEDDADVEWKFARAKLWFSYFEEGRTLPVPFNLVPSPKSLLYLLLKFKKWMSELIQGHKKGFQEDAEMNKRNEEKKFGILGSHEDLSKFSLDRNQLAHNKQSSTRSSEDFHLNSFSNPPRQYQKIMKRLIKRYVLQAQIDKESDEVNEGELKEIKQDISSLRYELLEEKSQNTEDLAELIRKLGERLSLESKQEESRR", "experiment": "Outside-out single channel recordings of TRPC5-like and TRPC6-like conductances", "type": "cell-based", "conditions": "La3+ 100 μM; in words", "method": "as §1"}, "[6]": {"target": "T2, TRPC5 and TRPC6 channels in AT1R podocytes (Rattus norvegicus, UniProt Q8VD38)", "T2 construct": "endogenous in cells; host or cells: immortalized rat podocytes stably expressing the AngII Type 1 Receptor (AT1R podocytes)", "T2 sequence (Q8VD38 1-974)": "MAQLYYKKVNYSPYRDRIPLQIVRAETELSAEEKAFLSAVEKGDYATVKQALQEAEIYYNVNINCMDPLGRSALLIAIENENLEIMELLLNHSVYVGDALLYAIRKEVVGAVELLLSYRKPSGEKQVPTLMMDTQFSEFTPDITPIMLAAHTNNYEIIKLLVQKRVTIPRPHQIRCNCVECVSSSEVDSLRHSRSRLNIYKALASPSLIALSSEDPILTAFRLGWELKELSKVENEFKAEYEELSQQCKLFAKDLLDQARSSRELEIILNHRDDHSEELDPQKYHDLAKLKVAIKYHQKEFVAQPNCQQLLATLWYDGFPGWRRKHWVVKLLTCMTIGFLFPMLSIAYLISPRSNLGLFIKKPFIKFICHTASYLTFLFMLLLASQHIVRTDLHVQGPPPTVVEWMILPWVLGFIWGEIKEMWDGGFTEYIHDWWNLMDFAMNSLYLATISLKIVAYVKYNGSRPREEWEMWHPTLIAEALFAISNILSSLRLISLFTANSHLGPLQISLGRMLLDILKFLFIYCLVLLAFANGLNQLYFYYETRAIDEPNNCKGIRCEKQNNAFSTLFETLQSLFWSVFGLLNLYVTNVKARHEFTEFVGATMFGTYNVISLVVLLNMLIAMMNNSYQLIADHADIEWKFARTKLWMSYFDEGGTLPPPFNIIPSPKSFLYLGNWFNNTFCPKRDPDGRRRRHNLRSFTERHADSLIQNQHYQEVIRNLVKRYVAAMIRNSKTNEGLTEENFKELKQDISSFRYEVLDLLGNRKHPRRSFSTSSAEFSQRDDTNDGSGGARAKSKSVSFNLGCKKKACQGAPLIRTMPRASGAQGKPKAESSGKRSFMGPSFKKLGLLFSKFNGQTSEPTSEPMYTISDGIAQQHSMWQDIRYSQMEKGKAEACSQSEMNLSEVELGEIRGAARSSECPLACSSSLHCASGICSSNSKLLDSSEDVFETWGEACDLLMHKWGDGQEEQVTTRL", "experiment": "Outside-out single channel recordings of TRPC5-like and TRPC6-like conductances", "type": "cell-based", "conditions": "La3+ 100 μM; after AngII 500 nM; Vstep +100 mV", "method": "as §1"}}, "note": "Entries after “also recorded” stand apart in the source; their conditions may differ."}
{"molecule": "Angiotensin II (DRVYIHPF; Angiotensin-2; UniProt P01019 25-32, looked up) [AngII]", "values": [{"measurement": "normalized peak current", "setting": "[1]; at +100 mV", "result": "20±7", "unit": "pA/pF"}, {"measurement": "normalized peak current", "setting": "[1]; at -100 mV", "result": "10±4", "unit": "pA/pF"}]}
{"molecule": "CCCCc1nc(Cl)c(CO)n1Cc1ccc(-c2ccccc2-c2nn[nH]n2)cc1", "note": "[Losartan]", "values": [{"measurement": "stress fibers", "setting": "[2]; cells pre-treated with Losartan, Scr shRNA controls 16±1", "result": "25±1"}, {"measurement": "stress fiber formation", "setting": "[3]; Losartan 200 nM prior to AngII exposure", "result": "induced robust stress fiber formation"}, {"measurement": "focal adhesions (Paxillin immunostaining)", "setting": "[3]; Losartan-treated vs AngII-treated controls", "result": "increase in focal adhesions"}, {"measurement": "decrease of the amplitude of the AngII-evoked Ca2+ transient", "setting": "[4]", "result": "more than 70%"}]}
{"molecule": "C[C@@H](N)[C@H]1CC[C@H](C(=O)Nc2ccncc2)CC1", "note": "[Y27632]", "values": [{"measurement": "stress fibers", "setting": "[2]; Y27632 10 μM in TRPC5 depleted cells (22±3 without)", "result": "6±1"}]}
{"molecule": "[La+3]", "note": "[La^3+, Lanthanum]", "values": [{"measurement": "effect on AngII-evoked single channel conductances [2] and [3] / single channel activity", "setting": "[5]", "result": "abolished; also recorded: suppressed"}, {"measurement": "single channel conductance [4] unmasked", "setting": "[6]", "result": 33, "unit": "pS"}]}
